# Data from patent publication US12649750B2, “Macrocyclic compounds, compositions, and methods of using thereof” (Sionna Therapeutics Inc., priority 2022, dated 2026).
# How the values were obtained:
# NBD1 = target: T1, NBD1 (Homo sapiens, UniProt P13569); assay: Aggregation analysis using differential static light scattering (DSLS), thermal stability of NBD1 (ΔTagg); format: binding; conditions: ΔTagg versus DMSO control, NBD1 0.2 mg/ml
# T1 construct: Purified recombinant NBD1 was produced using previously described methods; made in house
# How it was run: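 Purified recombinant NBD1 at 0.2 mg/ml in 50 mM Tris-HCl, 150 mM NaCl, 5 mM MgCl2, 2 mM ATP, 2 mM DTT, pH 7.6, 1% glycerol, with compound, heated 1° C./min to 70° C. under light-scattering monitoring. Tagg taken at curve inflection; ΔTagg is compound Tagg minus mean DMSO-control Tagg, binned A (≤5° C.), B (>5-≤10° C.), C (>10-≤25° C.).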
# CFTR = target: T2, CFTR (Homo sapiens, UniProt P13569, DEL508-508); assay: TECC24 AUC fold over DMSO @10 μM, CFTR-mediated transepithelial chloride transport in CF-HBE cells; format: cell-based; conditions: test agent AUC divided by DMSO vehicle AUC, primary CF-HBE cells, ΔF508 homozygous donor, 48 hours incubation
# T2 construct: Primary human bronchial epithelial cells from a ΔF508 homozygous CF donor; host or cells: primary human bronchial epithelial cells (CF-HBE), ΔF508 homozygous donor
# Procedure: Example 387. TECC24 AUC Fold Over DMSO @10 μM
# The effects of a test agent on CFTR-mediated transepithelial chloride transport is measured using TECC24 recording analysis. Test agents are solubilized in DMSO. Solubilized test agents are mixed with incubation medium containing DMEM/F12, Ultroser G (2%; Crescent Chemical, catalog #67042), Hyclone Fetal Clone II (2%; GE Healthcare, catalog #SH30066.02), bovine brain extract (0.25%; Lonza, catalog #CC-4098), insulin (2.5 μg/mL), IL-13 (10 ng/mL), hydrocortisone (20 nM), transferrin (2.5 μg/mL), triiodothyronine (500 nM), ethanolamine (250 nM), epinephrine (1.5 μM), phosphoethanolamine (250 nM), and retinoic acid (10 nM). Primary human bronchial epithelial cells from a ΔF508 homozygous CF donor (CF-HBE cells; from University of North Carolina Cystic Fibrosis Tissue Procurement Center), grown on Transwell HTS 24-well cell culture inserts (Costar, catalog #3378), are exposed to test agents or controls dissolved in incubation medium. The CF-HBE cells are cultured at 36.5° C. for 48 hours before TECC24 recordings are performed in the presence or absence of test agent, a positive control or vehicle (DMSO).
# Following incubation, the transwell cell culture inserts containing the test agent or control-treated CF-HBE cells are loaded onto a TECC24 apparatus (TECC v7 or MTECC v2; EP Design) to record the transepithelial voltage (VT) and resistance (TEER) using 4 AgCl electrodes per well configured in current-clamp mode. The apical and basolateral bath solutions both contain (in mM) 140 NaCl, 5 KCl, 2 CaCl2, 1 MgCl2, 10 Hepes, and 10 glucose (adjusted to pH 7.4 with NaOH). To inhibit basal Na+ absorption, the ENaC inhibitor benzamil (10 μM) is added to the bath. Then, the adenylate cyclase activator, forskolin (10 μM), is added to the bath to activate CFTR. The forskolin-stimulated Cl— transport is halted by addition of CFTR inhibitor-172 (20 μM) to the bath at the end of the experiment to confirm specificity. VT and TEER recordings are digitally acquired at routine intervals using TECC or MTECC software (EP Design). VT and TEER are transformed into equivalent transepithelial Cl— current (IEQ), and the Area Under the Curve (AUC) of the IEQ time course between forskolin and CFTR inhibitor-172 addition is generated using Excel (Microsoft). Efficacy is expressed as the ratio of the test agent AUC divided by vehicle AUC. EC50s based on AUC are generated using the non-linear regression log(agonist) vs. response function in Prism software (Graphpad) with HillSlope fixed=1.
# If a test agent increases the AUC of the forskolin-stimulated IEQ relative to vehicle in CF-HBE cells, and this increase is inhibited by CFTR inhibitor-172, then the test agent is considered a CFTR corrector. TECC assay efficacy is expressed as the ratio of the test agent AUC divided by DMSO vehicle AUC. As set forth in Table 2 below, a TECC value less than 12 is marked “A”; a value between 12-20 is marked “B”; a value between 20 and 80 is marked “C”. […]
# T1 sequence (P13569 423-646 limits assumed): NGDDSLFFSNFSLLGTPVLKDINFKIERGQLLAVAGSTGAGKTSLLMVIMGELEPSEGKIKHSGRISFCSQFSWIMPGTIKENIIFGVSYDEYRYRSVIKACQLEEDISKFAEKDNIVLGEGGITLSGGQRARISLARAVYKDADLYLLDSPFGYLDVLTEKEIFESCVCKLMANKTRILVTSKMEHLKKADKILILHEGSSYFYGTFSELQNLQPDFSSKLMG
# T2 sequence (P13569 with tags, fused parts or gaps DEL508-508): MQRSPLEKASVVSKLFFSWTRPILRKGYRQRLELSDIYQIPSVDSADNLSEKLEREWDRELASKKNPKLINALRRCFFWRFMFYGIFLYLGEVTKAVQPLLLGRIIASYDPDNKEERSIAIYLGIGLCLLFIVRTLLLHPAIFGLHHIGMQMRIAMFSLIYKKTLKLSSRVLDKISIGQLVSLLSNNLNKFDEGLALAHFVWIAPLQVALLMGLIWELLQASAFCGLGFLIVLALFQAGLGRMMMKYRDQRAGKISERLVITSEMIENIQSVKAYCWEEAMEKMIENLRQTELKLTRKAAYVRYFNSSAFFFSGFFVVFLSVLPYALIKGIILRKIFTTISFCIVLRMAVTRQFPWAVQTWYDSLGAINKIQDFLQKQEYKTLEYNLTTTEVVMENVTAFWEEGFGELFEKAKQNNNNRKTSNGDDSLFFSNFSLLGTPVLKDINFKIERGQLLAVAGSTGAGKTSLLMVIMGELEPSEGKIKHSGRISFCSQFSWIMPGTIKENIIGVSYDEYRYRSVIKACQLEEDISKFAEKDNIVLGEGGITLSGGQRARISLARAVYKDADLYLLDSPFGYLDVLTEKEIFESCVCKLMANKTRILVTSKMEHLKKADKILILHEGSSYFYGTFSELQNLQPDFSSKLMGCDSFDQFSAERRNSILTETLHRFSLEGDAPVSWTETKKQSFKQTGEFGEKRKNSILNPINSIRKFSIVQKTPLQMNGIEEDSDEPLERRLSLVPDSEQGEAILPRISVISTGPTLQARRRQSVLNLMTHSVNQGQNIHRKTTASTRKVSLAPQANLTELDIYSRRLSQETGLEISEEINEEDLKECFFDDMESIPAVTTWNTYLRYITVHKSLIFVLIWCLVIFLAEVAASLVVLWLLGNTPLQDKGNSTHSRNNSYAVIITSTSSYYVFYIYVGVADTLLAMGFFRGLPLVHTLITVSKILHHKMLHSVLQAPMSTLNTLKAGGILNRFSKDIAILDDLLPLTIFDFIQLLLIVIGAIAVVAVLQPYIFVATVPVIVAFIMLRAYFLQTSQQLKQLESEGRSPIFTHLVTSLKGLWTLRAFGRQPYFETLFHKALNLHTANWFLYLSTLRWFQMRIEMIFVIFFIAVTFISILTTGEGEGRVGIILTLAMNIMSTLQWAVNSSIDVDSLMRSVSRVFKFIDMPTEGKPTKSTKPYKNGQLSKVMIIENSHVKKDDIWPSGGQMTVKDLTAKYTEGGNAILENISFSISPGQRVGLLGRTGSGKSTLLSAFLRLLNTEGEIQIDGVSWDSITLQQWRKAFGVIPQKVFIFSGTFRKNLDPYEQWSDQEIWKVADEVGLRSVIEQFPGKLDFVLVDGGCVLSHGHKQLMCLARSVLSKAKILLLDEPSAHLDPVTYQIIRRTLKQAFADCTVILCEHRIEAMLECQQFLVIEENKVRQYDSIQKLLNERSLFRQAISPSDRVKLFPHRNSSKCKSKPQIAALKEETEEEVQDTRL
SMILES,DSLS 3D (100 μM ΔT) (NBD1),"TECC (AUC, 10 μM) (CFTR)"
"C[C@@H](Cc1cccc([C@@]2(C)CCCC(C)(C)CS(=O)(=O)CCc3c(c(F)c(F)c4[nH]ccc34)Sc3ccc(F)c(c3)-c3nc2nn3C)c1)C(=O)O (racemic) [Compound 259, (2S)-2-methyl-3-[3-[(6R)-21,22,28-trifluoro-3,6,10,10-tetramethyl-12,12-dioxo-12λ6,24-dithia-3,4,19,30-tetrazapentacyclo[23.3.1.12,5.015,23.016,20]triaconta-1(29),2(30),4,15,17,20,22,25,27-nonaen-6-yl]phenyl]propanoic Acid]",C (a value greater than 10 °C and less than or equal to 25 °C is marked “C”),C (a value between 20 and 80 is marked “C”)
"Cn1nc2nc1-c1cc(ccn1)Cc1c(F)cc3[nH]ccc3c1CCS(=O)(=O)CC(C)(C)CCC[C@]2(C)c1cccc(CC(C)(C)C(=O)O)c1 (racemic) [Compound 295, 2,2-dimethyl-3-[3-[rac-(6R)-22-fluoro-3,6,10,10-tetramethyl-12,12-dioxo-12λ6-thia-3,4,19,28,30-pentazapentacyclo[23.3.1.12,5.015,23.016,20]triaconta-1(29),2(30),4,15,17,20,22,25,27-nonaen-6-yl]phenyl]propanoic Acid]",B (a value above 5 °C and less than or equal to 10 °C is marked “B”),B (a value between 12-20 is marked “B”)
"[2H]C([2H])([2H])n1nc2nc1-c1cc(ccc1F)Oc1c(F)cc3[nH]ccc3c1CCS(=O)(=O)CC(C)(C)CCCC2(C)c1cccc(OCC(=O)O)c1 (single isomer, unassigned) [Compound 1A, 2-[3-[22,28-Difluoro-6,10,10-trimethyl-12,12-dioxo-3-(trideuteriomethyl)-24-oxa-12λ^6-thia-3,4,19,30-tetrazapentacyclo[23.3.1.1^2,5.0^15,23.0^16,20]triaconta-1(29),2(30),4,15,17,20,22,25,27-nonaen-6-yl]phenoxy]acetic Acid]",C (a value greater than 10 °C and less than or equal to 25 °C is marked “C”),C (a value between 20 and 80 is marked “C”)
"[2H]C([2H])([2H])n1nc2nc1-c1cc(ccc1F)Oc1c(F)cc3[nH]ccc3c1CCS(=O)(=O)CC(C)(C)CCCC2(C)c1cccc(OCC(=O)O)c1 (single isomer, unassigned) [Compound 1B, 2-[3-[22,28-Difluoro-6,10,10-trimethyl-12,12-dioxo-3-(trideuteriomethyl)-24-oxa-12λ^6-thia-3,4,19,30-tetrazapentacyclo[23.3.1.1^2,5.0^15,23.0^16,20]triaconta-1(29),2(30),4,15,17,20,22,25,27-nonaen-6-yl]phenoxy]acetic Acid]",A (an ΔTagg value less than or equal to 5 °C is marked “A”),A (a TECC value less than 12 is marked “A”)
"Cn1nc2nc1-c1cc(ccc1F)Oc1c(F)cc3[nH]ccc3c1CCS(=O)(=O)CCC(F)(F)CCC2(C)c1cccc(CCC(=O)O)c1 (single isomer, unassigned) [Compound 2A, 3-[3-(9,9,22,28-Tetrafluoro-3,6-dimethyl-12,12-dioxo-24-oxa-12λ^6-thia-3,4,19,30-tetrazapentacyclo[23.3.1.1^2,5.0^15,23.0^16,20]triaconta-1(29),2(30),4,15,17,20,22,25,27-nonaen-6-yl)phenyl]propanoic Acid]",B (a value above 5 °C and less than or equal to 10 °C is marked “B”),B (a value between 12-20 is marked “B”)
"Cn1nc2nc1-c1cc(ccc1F)Oc1c(F)cc3[nH]ccc3c1CCS(=O)(=O)CCC(F)(F)CCC2(C)c1cccc(CCC(=O)O)c1 (single isomer, unassigned) [Compound 2B, 3-[3-(9,9,22,28-Tetrafluoro-3,6-dimethyl-12,12-dioxo-24-oxa-12λ^6-thia-3,4,19,30-tetrazapentacyclo[23.3.1.1^2,5.0^15,23.0^16,20]triaconta-1(29),2(30),4,15,17,20,22,25,27-nonaen-6-yl)phenyl]propanoic Acid]",A (an ΔTagg value less than or equal to 5 °C is marked “A”),A (a TECC value less than 12 is marked “A”)
"Cn1nc2nc1-c1cc(ccc1F)Oc1c(F)cc3[nH]ccc3c1CCS(=O)(=O)CC(C)(C)CCCC2(C)c1cccc(CCO)c1 (single isomer, unassigned) [Compound 4A, 2-[3-(22,28-Difluoro-3,6,10,10-tetramethyl-12,12-dioxo-24-oxa-12λ^6-thia-3,4,19,30-tetrazapentacyclo[23.3.1.1^2,5.0^15,23.0^16,20]triaconta-1(29),2(30),4,15,17,20,22,25,27-nonaen-6-yl)phenyl]ethanol]",C (a value greater than 10 °C and less than or equal to 25 °C is marked “C”),C (a value between 20 and 80 is marked “C”)
"Cn1nc2nc1-c1cc(ccc1F)Oc1c(F)cc3[nH]ccc3c1CCS(=O)(=O)CC(C)(C)CCCC2(C)c1cccc(CCO)c1 (single isomer, unassigned) [Compound 4B, 2-[3-(22,28-Difluoro-3,6,10,10-tetramethyl-12,12-dioxo-24-oxa-12λ^6-thia-3,4,19,30-tetrazapentacyclo[23.3.1.1^2,5.0^15,23.0^16,20]triaconta-1(29),2(30),4,15,17,20,22,25,27-nonaen-6-yl)phenyl]ethanol]",A (an ΔTagg value less than or equal to 5 °C is marked “A”),A (a TECC value less than 12 is marked “A”)
"Cn1nc2nc1-c1cc(ccc1F)Oc1c(F)cc3[nH]ccc3c1CCS(=O)(=O)CC(C)(C)OCCC2(C)c1cccc(CC(=O)O)c1 (single isomer, unassigned) [Compound 5A, 2-[3-(22,28-Difluoro-3,6,10,10-tetramethyl-12,12-dioxo-9,24-dioxa-12λ^6-thia-3,4,19,30-tetrazapentacyclo[23.3.1.12,5.015,23.016,20]triaconta-1(29),2(30),4,15,17,20,22,25,27-nonaen-6-yl)phenyl]acetic Acid]",C (a value greater than 10 °C and less than or equal to 25 °C is marked “C”),B (a value between 12-20 is marked “B”)
"Cn1nc2nc1-c1cc(ccc1F)Oc1c(F)cc3[nH]ccc3c1CCS(=O)(=O)CC(C)(C)OCCC2(C)c1cccc(CC(=O)O)c1 (single isomer, unassigned) [Compound 5B, 2-[3-(22,28-Difluoro-3,6,10,10-tetramethyl-12,12-dioxo-9,24-dioxa-12λ^6-thia-3,4,19,30-tetrazapentacyclo[23.3.1.12,5.015,23.016,20]triaconta-1(29),2(30),4,15,17,20,22,25,27-nonaen-6-yl)phenyl]acetic Acid]",B (a value above 5 °C and less than or equal to 10 °C is marked “B”),B (a value between 12-20 is marked “B”)
"C[C@H](Cc1cccc(C2(C)CCCC(C)(C)CS(=O)(=O)CCc3c(c(F)cc4[nH]ccc34)Oc3ccc(F)c(c3)-c3nc2nn3C)c1)C(=O)O (single isomer, unassigned) [Compound 6A]",C (a value greater than 10 °C and less than or equal to 25 °C is marked “C”),B (a value between 12-20 is marked “B”)
